Results on 6 compounds are retold here after paper PMC9006239, “Synthesis of potent and selective HDAC6 inhibitors led to unexpected opening of a quinazoline ring” (RSC Advances, 2022).

Read-outs that look alike come from different tables or passages of the source.

In data set [1] the test system is HDAC6. The note with it: cited from earlier work.
Data set [2] deals with T1, human HDAC6 (Homo sapiens, UniProt Q9UBN7).
T1 construct: purchased Reaction Biology Corp. (contract assay)
T1 sequence (Q9UBN7 1-1215): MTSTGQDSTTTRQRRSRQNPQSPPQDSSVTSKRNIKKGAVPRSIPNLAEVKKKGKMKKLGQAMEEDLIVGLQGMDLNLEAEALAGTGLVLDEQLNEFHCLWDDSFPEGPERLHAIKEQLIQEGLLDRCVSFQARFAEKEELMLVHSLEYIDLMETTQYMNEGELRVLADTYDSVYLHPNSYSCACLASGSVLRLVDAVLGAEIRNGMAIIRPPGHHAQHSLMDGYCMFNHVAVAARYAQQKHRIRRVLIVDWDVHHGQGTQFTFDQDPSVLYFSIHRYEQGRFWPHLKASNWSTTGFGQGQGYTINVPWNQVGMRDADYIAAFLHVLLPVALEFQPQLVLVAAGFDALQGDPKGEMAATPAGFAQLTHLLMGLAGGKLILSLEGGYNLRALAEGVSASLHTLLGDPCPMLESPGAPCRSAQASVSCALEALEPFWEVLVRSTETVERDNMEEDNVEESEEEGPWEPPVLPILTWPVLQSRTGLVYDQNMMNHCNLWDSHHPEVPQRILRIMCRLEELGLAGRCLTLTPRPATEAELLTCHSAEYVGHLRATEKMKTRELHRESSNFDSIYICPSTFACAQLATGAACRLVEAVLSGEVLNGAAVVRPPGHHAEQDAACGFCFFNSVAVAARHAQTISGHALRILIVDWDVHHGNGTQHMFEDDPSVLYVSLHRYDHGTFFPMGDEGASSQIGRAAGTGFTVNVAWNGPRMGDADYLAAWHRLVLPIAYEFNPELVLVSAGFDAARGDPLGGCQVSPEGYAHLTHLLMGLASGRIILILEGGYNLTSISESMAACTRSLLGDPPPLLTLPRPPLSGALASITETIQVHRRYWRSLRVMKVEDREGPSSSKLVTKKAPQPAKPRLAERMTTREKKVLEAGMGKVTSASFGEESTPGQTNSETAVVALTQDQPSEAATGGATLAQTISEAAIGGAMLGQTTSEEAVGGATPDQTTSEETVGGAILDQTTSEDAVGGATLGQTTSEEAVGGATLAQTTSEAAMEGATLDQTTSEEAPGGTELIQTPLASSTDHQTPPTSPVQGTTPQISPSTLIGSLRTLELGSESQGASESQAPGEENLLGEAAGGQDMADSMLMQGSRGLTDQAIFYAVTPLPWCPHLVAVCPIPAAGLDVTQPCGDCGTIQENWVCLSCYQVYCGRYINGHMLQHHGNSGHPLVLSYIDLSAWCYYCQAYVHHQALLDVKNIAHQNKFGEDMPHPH
As to the kind of experiment: In vitro inhibitory activity on purified recombinant HDAC6 (fluorogenic peptide assay, Reaction Biology Corp.). Format: biochemical. The note with it: for selectivity for HDAC6 with respect to HDAC1: HDAC6 vs HDAC1, from the IC50 values of Table 2; for selectivity for HDAC6 with respect to HDAC8: HDAC6 vs HDAC8, from the IC50 values of Table 2; for IC50: purified recombinant enzyme, RHKK-Ac-AMC substrate, singlet 10-dose, 3-fold serial dilution. As to the method: Figure S1. […] All compounds were tested in singlet
IC50 values were calculated
Figure S2. […] All compounds were tested in singlet
Figure S3. […] All compounds were tested in singlet

Data set [3] concerns the target human HDAC1 (Homo sapiens, UniProt Q13547). Description: In vitro inhibitory activity on purified recombinant HDAC1 (fluorogenic peptide assay, Reaction Biology Corp.).
Experimental: (§1) In vitro tests on HDAC6, HDAC1 and HDAC8 were performed at Reaction Biology Corp. with modalities described below. […] The compounds were dissolved in DMSO and tested with 3-fold serial dilution starting from 100 μM. The enzymatic assays were performed by adding HDAC6 and the ligand solutions in the reaction buffer described above. […] IC50 values were calculated by using the GraphPad Prism 4 program based on a sigmoidal dose–response equation. The blank (DMSO) value concentration was entered as 1.00 × 10^−12 M for curve fitting.
(§2) using the GraphPad Prism4 program based on a sigmoidal dose-response equation.
Data set [4] has as its target T2, human HDAC8 (Homo sapiens, UniProt Q9BY41).
T2 sequence (Q9BY41 1-377): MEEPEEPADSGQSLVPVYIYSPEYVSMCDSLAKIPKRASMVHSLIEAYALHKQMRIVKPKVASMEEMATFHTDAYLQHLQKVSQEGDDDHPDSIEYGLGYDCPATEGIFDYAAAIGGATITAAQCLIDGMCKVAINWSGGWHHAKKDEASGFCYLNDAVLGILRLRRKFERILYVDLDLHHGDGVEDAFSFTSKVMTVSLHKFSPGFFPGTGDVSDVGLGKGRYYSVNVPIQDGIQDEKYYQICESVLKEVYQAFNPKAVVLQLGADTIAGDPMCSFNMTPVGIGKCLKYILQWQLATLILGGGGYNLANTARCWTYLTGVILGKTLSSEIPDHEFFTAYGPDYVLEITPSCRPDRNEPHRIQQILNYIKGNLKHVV
As to the kind of experiment: In vitro inhibitory activity on purified recombinant HDAC8 (fluorogenic peptide assay, Reaction Biology Corp.).
Experimental: as §1, §2

The mark [5] stands for this setting: known quinazoline-capped inhibitors, Fig. 1.

human HDAC1, sequence (Q13547 whole entry): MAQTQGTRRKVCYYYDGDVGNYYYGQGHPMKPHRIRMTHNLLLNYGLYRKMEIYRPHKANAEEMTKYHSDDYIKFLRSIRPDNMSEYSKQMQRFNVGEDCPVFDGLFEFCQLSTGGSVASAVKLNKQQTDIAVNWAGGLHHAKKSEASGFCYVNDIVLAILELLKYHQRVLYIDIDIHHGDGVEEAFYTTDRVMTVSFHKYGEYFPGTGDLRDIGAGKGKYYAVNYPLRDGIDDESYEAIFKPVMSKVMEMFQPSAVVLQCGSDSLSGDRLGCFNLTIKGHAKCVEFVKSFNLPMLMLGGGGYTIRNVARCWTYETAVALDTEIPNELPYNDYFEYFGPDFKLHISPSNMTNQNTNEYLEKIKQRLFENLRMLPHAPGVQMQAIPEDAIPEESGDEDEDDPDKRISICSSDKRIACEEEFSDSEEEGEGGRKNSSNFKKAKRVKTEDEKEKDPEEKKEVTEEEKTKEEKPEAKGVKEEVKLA

For `COc1ccc(N(C)c2nc(C)nc3ccccc23)cc1OCCCC(=O)NO` [Compound 1], in data set [1] (setting [5]), the 50% inhibitory concentration (IC50) (as a rule, the concentration that gives 50% inhibition) is 17 nM.

On to `COc1ccc(N(C)c2nc(C)nc3ccccc23)cc1NC(=O)CCC(=O)NO` [Compound 2], for which the IC50 in data set [1] (setting [5]) was 16 nM.

Take `COc1ccc(N(C)c2nc(C)nc3ccccc23)cc1NC(=O)CCCC(=O)NO` [Compound 3]: the half-inhibitory concentration (IC50) in data set [1] (setting [5]) was 35 nM.

With `COc1cc2nc(NCCCCCCC(=O)NO)nc(NC3CCN(C(C)C)CC3)c2cc1OC` [Compound 5], the IC50 in data set [1] (most active quinazoline inhibitor reported so far) was 12 nM.

On to `Nc1nc2c3ccc(Cc4ccc(C(=O)NO)cc4)cc3nc(Cc3ccc4c(c3)OCO4)n2n1` [Compound 11a, 4-((2-Amino-5-(benzo[d][1,3]dioxol-5-ylmethyl)-[1,2,4]triazolo[1,5-c]quinazolin-8-yl)methyl)-N-hydroxybenzamide], for which the melting point – broadly, the temperature of the solid-liquid transition – was < 267 °C (dec.). Moreover, in data set [2], the “selectivity for HDAC6 with respect to HDAC1” value is listed as “more than 12 000 fold”, the “selectivity for HDAC6 with respect to HDAC8” value is reported as above 1000 fold and the IC50 was 0.5 nM. For the same compound, the IC50 in data set [3] was 6080 nM. Moreover, in data set [4], the IC50 is 653 nM.

Take `Nc1n[nH]c(-c2cc(Cc3ccc(C(=O)NO)cc3)ccc2NC(=O)Cc2ccc3c(c2)OCO3)n1` [Compound 18, 4-(3-(3-Amino-1H-1,2,4-triazol-5-yl)-4-(2-(benzo[d][1,3]dioxol-5-yl)acetamido)benzyl)-N-hydroxybenzamide]: the melting point is < 264 °C (dec.). Besides, in data set [2], the “selectivity for HDAC6 with respect to HDAC1” value is given as > 18 000 fold, the “selectivity for HDAC6 with respect to HDAC8” value was > 15 000 fold and the 50% inhibitory concentration (IC50) came out at 0.1 nM. Besides, in data set [3], the IC50 turned out to be 1820 nM. In addition, the IC50 in data set [4] stood at 1560 nM.
